# Assay results taken from ChEMBL document CHEMBL1201862, “PubChem BioAssay data set” (2004).
#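 Protocol summary: plate cells (96-well), add compound at 5 concentrations, incubate 48 h, interpolate endpoints linearly. Here, GI50 denotes the concentration required for 50% inhibition of growth.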 The source made the active and inactive calls. Cut-off read from the data, not from the text of the source: active = GI50 up to about 1.1 µM and inactive = higher.
# Key:
# Assay in all cases: DTP human tumour cell line panel, 48 h
# [1] = system: OVCAR-3
# [2] = system: K562
# [3] = system: SF-295
# [4] = system: HOP-62
# [5] = system: HCT-15
# [6] = system: LOX IMVI
# [7] = system: M14
# [8] = system: CCRF-CEM
# [9] = system: KM12
# [10] = system: HCT-116
# [11] = system: SNB-75
# [12] = system: A498
# [13] = system: MOLT-4
# [14] = system: A549
# [15] = system: NCI-H522
# [16] = system: SR
# [17] = system: IGROV-1
Structure (SMILES),GI50 [1],GI50 [2],GI50 [3],GI50 [4],GI50 [5] [µM],GI50 [6],GI50 [7],GI50 [8],GI50 [9],GI50 [10],GI50 [11],GI50 [12],GI50 [13],GI50 [14],GI50 [15],GI50 [16],GI50 [17]
O=C1OC2CCCC[C@@H]2C2C[C@]34CCCCC3[C@@H](C(=O)O4)C12 (stereo partly specified),> 100 µM (inactive),> 100 µM (inactive),> 100 µM (inactive),> 100 µM (inactive),> 100,> 100 µM (inactive),> 100 µM (inactive),> 100 µM (inactive),> 100 µM (inactive),> 100 µM (inactive),> 100 µM (inactive),> 100 µM (inactive),> 100 µM (inactive),> 100 µM (inactive),> 100 µM (inactive),,
CCCC(=O)c1ccc(=O)n(C)c1,> 100 µM (inactive),> 100 µM (inactive),> 100 µM (inactive),> 100 µM (inactive),> 100,> 100 µM (inactive),> 100 µM (inactive),> 100 µM (inactive),> 100 µM (inactive),> 100 µM (inactive),> 100 µM (inactive),,> 100 µM (inactive),> 100 µM (inactive),> 100 µM (inactive),> 100 µM (inactive),> 100 µM (inactive)
O=C(c1ccc(Cl)cc1)N(C(=S)N1CCN(c2ccccc2)CC1)c1ccccc1,> 100 µM (inactive),> 100 µM (inactive),> 100 µM (inactive),> 100 µM (inactive),> 100,> 100 µM (inactive),> 100 µM (inactive),> 100 µM (inactive),> 100 µM (inactive),> 100 µM (inactive),> 100 µM (inactive),,> 100 µM (inactive),> 100 µM (inactive),> 100 µM (inactive),> 100 µM (inactive),> 100 µM (inactive)
O=C(CC(=O)C(=O)CC(=O)OCc1ccccc1)OCc1ccccc1,,58.6 µM (inactive),,56.2 µM (inactive),> 100,,> 100 µM (inactive),49.2 µM (inactive),,44.6 µM (inactive),61.5 µM (inactive),> 100 µM (inactive),64.3 µM (inactive),60.8 µM (inactive),31.3 µM (inactive),70.8 µM (inactive),78.3 µM (inactive)
O=C(CC(=O)N1N=C(N2c3ccccc3Sc3ccccc32)CC1c1ccccc1)Nc1ccc(Cl)cc1 (stereo unspecified),> 100 µM (inactive),> 10 µM (inactive),> 100 µM (inactive),> 100 µM (inactive),> 100,> 100 µM (inactive),> 100 µM (inactive),> 10 µM (inactive),> 100 µM (inactive),> 100 µM (inactive),> 100 µM (inactive),> 100 µM (inactive),,> 100 µM (inactive),,,> 100 µM (inactive)
COc1ccc2c3c(c(C(=O)O)oc13)CCC2,> 100 µM (inactive),> 100 µM (inactive),> 100 µM (inactive),> 100 µM (inactive),> 100,> 100 µM (inactive),> 100 µM (inactive),> 100 µM (inactive),> 100 µM (inactive),> 100 µM (inactive),29.1 µM (inactive),,> 100 µM (inactive),> 100 µM (inactive),> 100 µM (inactive),> 100 µM (inactive),> 100 µM (inactive)
O=C1c2ccccc2C2(Br)C(=O)c3ccccc3C12 (stereo unspecified),> 100 µM (inactive),> 100 µM (inactive),> 100 µM (inactive),> 100 µM (inactive),> 100,11.1 µM (inactive),> 100 µM (inactive),42.4 µM (inactive),> 100 µM (inactive),,> 100 µM (inactive),,> 100 µM (inactive),> 100 µM (inactive),> 100 µM (inactive),,> 100 µM (inactive)
COc1cc(C(=O)C/C(CCC(=O)Nc2ccccc2[N+](=O)[O-])=N\NC(=O)CC#N)ccc1O,> 100 µM (inactive),> 100 µM (inactive),> 100 µM (inactive),> 100 µM (inactive),> 100,> 100 µM (inactive),> 100 µM (inactive),> 100 µM (inactive),> 100 µM (inactive),,49.1 µM (inactive),40.7 µM (inactive),> 100 µM (inactive),> 100 µM (inactive),> 100 µM (inactive),,> 100 µM (inactive)
C[N+]1(C)C/C(=C\c2ccccc2)C(=O)/C(=C/c2ccccc2)C1,> 100 µM (inactive),62.2 µM (inactive),> 100 µM (inactive),> 100 µM (inactive),> 100,,> 100 µM (inactive),49 µM (inactive),> 100 µM (inactive),> 100 µM (inactive),> 100 µM (inactive),> 100 µM (inactive),32.8 µM (inactive),> 100 µM (inactive),,63 µM (inactive),> 100 µM (inactive)
COC(=O)C1(C(C)C)CCc2c(OC)ccc(OC)c2C1=O (stereo unspecified),> 100 µM (inactive),> 100 µM (inactive),> 100 µM (inactive),> 100 µM (inactive),> 100,> 100 µM (inactive),> 100 µM (inactive),> 100 µM (inactive),> 100 µM (inactive),> 100 µM (inactive),,> 100 µM (inactive),74.3 µM (inactive),> 100 µM (inactive),> 100 µM (inactive),,> 100 µM (inactive)
NCCNCCNCc1c2ccccc2c(CNCCNCCN)c2ccccc12,> 100 µM (inactive),25.4 µM (inactive),41.4 µM (inactive),60.3 µM (inactive),> 100,70.6 µM (inactive),> 100 µM (inactive),78.5 µM (inactive),40.4 µM (inactive),38 µM (inactive),,,36.5 µM (inactive),79.3 µM (inactive),,31.3 µM (inactive),75 µM (inactive)
CN(C)CCNC(=O)c1cccc2nc3ccc4ccccc4c3nc12,0.169 µM (active),0.0931 µM (active),0.0989 µM (active),0.147 µM (active),0.0598,0.0726 µM (active),0.2 µM (active),0.0673 µM (active),0.131 µM (active),0.0247 µM (active),0.12 µM (active),0.0832 µM (active),0.0324 µM (active),0.0481 µM (active),,,0.0817 µM (active)
CSC1(C)CC2C(CC1N1CCCCC1)C2(C)C (stereo unspecified),> 100 µM (inactive),> 100 µM (inactive),> 100 µM (inactive),,> 100,,> 100 µM (inactive),> 100 µM (inactive),> 100 µM (inactive),> 100 µM (inactive),> 100 µM (inactive),,> 100 µM (inactive),> 100 µM (inactive),,,> 100 µM (inactive)
CSc1ccc2c(cc1=O)C(NC(=O)c1cc(O)c(OC(=O)O)c(O)c1)CCc1cc(O)c(O)c(O)c1-2 (stereo unspecified),18.2 µM (inactive),12.2 µM (inactive),17.4 µM (inactive),19 µM (inactive),16.1,12.9 µM (inactive),12.1 µM (inactive),11.9 µM (inactive),22.8 µM (inactive),16.5 µM (inactive),32.7 µM (inactive),36.1 µM (inactive),16.7 µM (inactive),19.5 µM (inactive),5.87 µM (inactive),,19.7 µM (inactive)
